Experimental data taken from article PMC4721142, “Randomized controlled studies on the efficacy of antiarthritic agents in inhibiting cartilage degeneration and pain associated with progression of osteoarthritis in the rat” (Arthritis Research & Therapy, 2016).
Values joined by “and” are separate entries in the source; they are usually repeats but may differ in a detail not shown here. Equal values may be shown once.

Experiments:
[1] = tested on: NF-κB; details: cited from earlier work
[2] = tested on: RAW 264.7 cells; assay: RANKL-mediated osteoclastogenesis / matrix resorption (Osteologic) assay; format: cell-based, murine
Description: RAW 264.7 cells (American Type Culture Collection [ATCC], Manassas, VA, USA), a murine monocytic cell line that differentiates in the presence of RANKL, was used for measurements of osteoclastogenesis and osteoclast activity. Cells were amplified on nonadherent culture substratum in high-glucose Dulbecco’s modified Eagle’s medium (DMEM) containing 10 % fetal bovine serum (FBS) and penicillin-streptomycin in a 37 °C, 5 % CO2, humidified incubator and were passaged by manual dissociation. […] Plates were subsequently rinsed, bleached, dried, and analyzed for matrix degradation using a Nikon COOLSCOPE (Nikon Instruments, Melville, NY, USA). Matrix resorption was quantified using EclipseNet (Nikon Instruments)/Visiopharm (Visiopharm, Hørsholm, Denmark) software (see Additional file 1).
In Vitro Osteoclastogenesis
Osteoclastogenic activity was measured using BD osteologic plates and quantitation of the degree of bone matrix digestion on the plate surface. Images from the BD Osteologic assay used to […]
left pane depicts an example of a control well after removal of cells from matrix. Pseudocoloring of matrix (blue) and pits (green) is shown in the far right pane. A transparent overlay of the two images is shown in the center.
Figure 5 - Measurement of drug effects on osteoclastogenesis and osteoclast activity.
Comparisons were made between RANKL treated control wells and wells treated with both RANKL and […]
Agents were initially tested either during differentiation or post differentiation in the bone assay […]
(e.g., Figure 2, Sulfazalazine). […]
indicated (*/**: p < 0.05/0.01, unpaired t-test versus RANKL control). […]

[3] = tested on: MMP-13; assay: MMP-13 ELISA on supernatants of TNF-α-treated chondrogenic pellets; format: cell-based, human
[4] = Comparison of in vitro screens: overlapping effective and nontoxic range; details: for Overlapping effective and nontoxic range: inhibits with minimal or no toxicity to synovium or cartilage, overlapping range if effective in more than one assay;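 on all read-outs here: compares non-toxic ranges in synovial cells and chondrocytes with effective ranges against NFkB, MMP-13 and osteoclasts, giving their overlap as the predicted efficacy range in uM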
[5] = tested on: NF-κB; assay: TNF-α-stimulated NF-κB dual luciferase reporter assay in HeLa cells; format: cell-based
Description: NF-κB activity was assessed using a previously described dual plasmid reporter system. HeLa cells were transfected with NF-κB luciferase (Stratagene Products Division, Agilent Technologies, La Jolla, CA, USA) and pRLuc-N3 (PerkinElmer, Waltham, MA, USA) at an 8:1 ratio, respectively, in triplicate. […] NF-κB activity was measured 5 h later with a Dual-Glo Luciferase Assay (Promega, Madison, WI, USA) and an Omni plate reader (BMG Labtech, Cary, NC, USA). The ratio of firefly luciferase luminescence (NF-κB reporter) to Renilla luciferase luminescence (control) was normalized for the number of viable transfected cells. Data are reported as a ratio of activity of viable treated cells over the activity of cells not exposed to TNF-α or drug (fold stimulation above basal untreated levels of activity). The viability of HeLa cells with and without drug was also measured using a CellTiter-Glo luminescent viability assay (Promega). […]
NF-κB activity was assessed in HeLa cells that were transiently transfected with two reporter constructs as described in the manuscript. Agents were tested for their ability to block TNF- […]
Expression of the luciferase from the Renilla construct was used as a measure of viability, which was confirmed with a cytotoxicity assay (see later section).

[6] = tested on: SW982; assay: Synovial toxicity (CellTiter-Glo), with or without TNF-α
Description: Viability was measured with the CellTiter-Glo luminescent viability assay (Promega). […] To more accurately predict the effects of the drugs on osteoarthritic synovium, cells were tested with or without TNF-α (20 ng/ml; BioSource).
In Vitro Toxicity Testing with a Synovial Cell Line
Compounds were tested for synovial toxicity using SW982 cells alone or in the presence of TNF as

[7] = tested on: Normal human articular chondrocytes; assay: Cytotoxicity to chondrogenic pellets (CellTiter-Blue)
Description: Differentiated chondrogenic pellets were used both to test the ability of drugs to block MMP-13 activity and to test for drug toxicity. […] Supernatants were collected and analyzed for MMP-13 using an enzyme-linked immunosorbent assay (GE Healthcare Life Sciences, Little Chalfont, UK). Cytotoxicity to pellets was assessed using CellTiter-Blue (Promega).

[8] = tested on: IKK-2; details: reported; cited from earlier work
[9] = tested on: HeLa cells; assay: HeLa cell viability (CellTiter-Glo)
Description: NF-κB activity was assessed using a previously described dual plasmid reporter system. HeLa cells were transfected with NF-κB luciferase (Stratagene Products Division, Agilent Technologies, La Jolla, CA, USA) and pRLuc-N3 (PerkinElmer, Waltham, MA, USA) at an 8:1 ratio, respectively, in triplicate. […] NF-κB activity was measured 5 h later with a Dual-Glo Luciferase Assay (Promega, Madison, WI, USA) and an Omni plate reader (BMG Labtech, Cary, NC, USA). The ratio of firefly luciferase luminescence (NF-κB reporter) to Renilla luciferase luminescence (control) was normalized for the number of viable transfected cells. Data are reported as a ratio of activity of viable treated cells over the activity of cells not exposed to TNF-α or drug (fold stimulation above basal untreated levels of activity). The viability of HeLa cells with and without drug was also measured using a CellTiter-Glo luminescent viability assay (Promega).
In Vitro Hela Cell Drug Toxicity Testing
Potential drug toxicity was measured using a CTG assay and HeLa cells (Promega). Drugs not tested in
this assay were tested in either of the in vitro toxicity assays already presented (synovial or chondrocyte
Table 3- Drug toxicity measured using a CTG assay and HeLa cells.

[10] = tested on: MMT/MCLT rat model of OA; assay: MMT/MCLT trial 1 histopathology (same doses); format: in vivo; details: low or only dose
Source text: For MMT/MCLT rat knee joints, sections were cut in 200-μm steps; stained with toluidine blue (also with a right and left half per section); and similarly analyzed for cartilage degeneration, proteoglycan loss, collagen damage, and osteophyte formation. Results were averaged across the three sections for an overall semiquantitative score. Regional differences across the tibial plateau were taken into consideration by dividing each section into three zones delineated using an ocular micrometer (outside, middle, and inside). Scores were based on the percentage of area affected within the zone.
Cartilage degeneration in the tibia was scored on a 5-point scale as detailed in the Methods section of Additional file 1. The total extent of degeneration of the tibial plateau was measured (in micrometers) and included an analysis of cell loss, proteoglycan loss, and collagen damage. Significant cartilage degeneration reflecting any degeneration extending through more than 50 % of the cartilage thickness was also measured. Collagen damage across the medial tibial plateau (the most severely affected section of the two halves) was also quantified.
Osteophytes and femoral cartilage degeneration were analyzed as detailed in Additional file 1. Scoring of the osteophytes and categorization into small, medium, and large was performed using an ocular micrometer. The actual osteophyte measurement (tidemark to farthest distance point extending toward the synovium) was also recorded. The femoral cartilage degeneration score and the three-zone sum of the tibial cartilage degeneration scores (mean of three levels) were summed to create a total cartilage degeneration score. The mean osteophyte score for each joint was added to this value to create a total joint score. […]
Histopathology MMT/MCLT Model

[11] = tested on: MIA rat model of OA; assay: MIA trial 1 weight bearing (daily s.c. clonidine 0.1, fluocinolone 0.002, morphine 6 mg/kg); format: in vivo
Description: (§1) Weight bearing (WB; incapacitance) was measured five times per day, once per week, using a Linton incapacitance meter (Stoelting Co., Wood Dale, IL, USA). Rats were acclimated to the meter before study initiation, and, similarly, immediately before WB, the animals were placed in the meter and allowed to acclimate for 2–5 minutes. Each hind paw was placed on a separate force plate so that the force exerted by each side could be averaged over a 5-second interval, and the mean of three readings was taken for each data point. Right paw force was compared with that on the left side for each group to confirm that animals were displaying incapacitance and/or pain behavior. Differences in force (left minus right) and right paw force as a percentage of the total force exerted by both paws were determined and compared between groups.
Following isoflurane anesthesia, 50 μl (2 mg) of MIA was injected into the synovial space of the left knee. Animals were randomly assigned to groups, and pain behavior was assessed 7, 14, 21, and 28 days following MIA injection and intervention using WB with the Stoelting incapacitance meter (trial 1) or the dRS test (trials 2 and 3). […] Animals received MIA treatment and then saline control or therapeutic. […] Histopathology was performed at each time point and at study termination. All studies were conducted in accordance with the International Association for the Study of Pain Guidelines and were approved by the Algos Therapeutics, Inc. Institutional Animal Care and Use Committee (IACUC) before initiation. Those running the studies were blind to the treatments. See Additional file 1 for further details. […]
dosing were housed three per cage. Animals had free access to food and water and were maintained […]
The animal colony was maintained at approximately 21 °C. All experiments were conducted in accordance with the International Association for the Study of Pain Guidelines.

[12] = tested on: MMT/MCLT rat model of OA; assay: MMT/MCLT trial 1 weight bearing (daily morphine 10 mg/kg, tacrolimus 0.3 or 0.6 mg/kg, fluocinolone 5 or 10 μg/kg, clonidine 100 μg/kg, alendronate 10 μg/kg i.p.; curcumin, withaferin 50 mg/kg p.o.); format: in vivo; details: low or only dose
Description: as §1
Following isoflurane anesthesia, the medial collateral ligament was transected just below its attachment to the meniscus in the right knee. The meniscus was cut at its narrowest point away from the ossicles so as not to damage the tibial surface and to ensure that the anterior and posterior meniscus halves were freely movable. […] In trial 2, drugs were administered IA weekly beginning 1 week following surgery. Three weeks postsurgery, animals were humanely killed and their right knees were collected for histopathology. All studies were conducted in accordance with the International Association for the Study of Pain Guidelines and were approved by the Bolder BioPATH IACUC (Boulder, CO, USA) in compliance with regulations before study initiation (IACUC protocol BBP03-006). Those running the studies were blinded to the treatments. See Additional file 1 for further details.
Isoflurane and the right knee area prepared for surgery. A skin incision was made over the medial aspect of the knee and the medial collateral ligament was exposed by blunt dissection and then transected. The medial meniscus was cut through the full thickness to simulate a complete tear and the skin was then closed with suture.
All pharmaceutical agents were prepared and stored as recommended by the supplier. Daily drug preparations were made fresh from stock solutions. […]
In Trial 2 drugs were […]
administered IA weekly beginning one week following surgery. […]
were delivered by gavage and were prepared in 0.3% Methyl Cellulose.
WB was measured five times a day, once a week, using a Linton incapacitance meter (Stoelting Co.) to assess pain behavior. Rats were acclimated to the incapacitance meter prior to study initiation.
Similarly, immediately prior to WB animals were placed in the incapacitance meter and allowed to acclimate for 2-5 minutes. Each hind paw was placed on a separate force plate so that the force exerted by each side could be averaged over a 5 second interval and the mean of three readings taken for each data point. Right paw force was compared to left for each group to confirm that animals were displaying incapacitance / pain behavior. Difference in force (left minus right) and right paw force as a percentage of the total force exerted by both paws were determined and compared between groups. Three weeks after surgery, animals were humanely euthanized and right knees collected for histopathology evaluation.
Figure 2. MMT/MCLT Trial Timeline […]
MMT/MCLT Dosing (once/day)
The study design and animal usage was approved by Bolder BioPATH’s Institutional Animal Care and Use Committee (IACUC) for compliance with regulations prior to study initiation (IACUC […]
Labs. Animals were identified by a distinct mark at the base of the tail delineating group and animal number. After randomization, all cages were labeled with protocol number, group numbers, and animal numbers with appropriate color-coding (see protocol).

## O=C1C(=Cc2ccccc2F)CNCC1=Cc1ccccc1F [Curcumin-14, 3,5-bis(2-flurobenzylidene)piperidin-4-one]
[1]; reportedly
  times more potent than curcumin: Reportedly 10 times more potent than curcumin Inhibits NF-κB by inhibiting IκB kinase (IKK) [82] Potent anticarcinogenic activity inducing death of lung, breast, ovarian, and cervical cancer cells [82]
[2]
  Effective range against Osteoclasts: Not effective
[3]
  Effective range against MMP-13: ≥ 0.625 µM
[4]
  Non-toxic & predicted range of efficacy: 2.5 to 10 µM
  Overlapping effective and nontoxic range: 2.5 to 10 µM
[5]
  Effective range against NFkB: ≥ 2.5 µM

## NC(=O)Nc1sc(-c2ccccc2)cc1C(N)=O [IKK inhibitor VI, (5-Phenyl-2-ureido)thiophene-3-carboxamide]
[2]
  Effective range against Osteoclasts: ≥ 0.5 µM
[6]
  Non-toxic range (Synovial): 0.028 to 0.25 µM
[7]
  Non-toxic range (Chondrocyte): 0.23 to 15.6 µM
[3]
  Effective range against MMP-13: ≥ 0.24 µM
[4]
  Non-toxic & predicted range of efficacy: 0.95 to 4.0 µM
  Overlapping effective and nontoxic range: 0.24 to 15.2 µM
[5]
  Effective against NF κβ (p<0.05): 0.23 to 15.3 µM
  Effective range against NFkB: ≥ 0.95 µM
[8]
  IC50: 13 to 18 nM
[9]
  Non-toxic concentrations: 0 to 0.9 M
  Toxic concentrations (p<0.05): 1.9 to 3.83 µM

## CN1CC[C@]23c4c5ccc(O)c4O[C@H]2[C@@H](O)C=C[C@H]3[C@H]1C5 [Morphine]
[10]; mean
  Bone score: 3.63
  Depth ratio any matrix change, mean: 0.34
  Depth ratio any matrix change, zone 2: 0.11
  Femoral cartilage degeneration score: 2.33 and 2.33 ± 0.66
  Tibial cartilage degeneration score, 3-zone total: 6.21
  Tibial cartilage degeneration score, zone 1: 4.25
  Tibial cartilage degeneration score, zone 2: 1.92
  Tibial cartilage degeneration score, zone 3: 0.04
  Tibial cartilage degeneration width, significant: 666.67 µm
  Tibial cartilage degeneration width, total: 1279.17 µm
  Tibial osteophyte measure: 573.75 µm
  Tibial osteophyte score: 4.42
  Total joint score: 12.96 and 12.96 ± 0.89
  Total joint score w/o femur: 10.63
[10]; vs saline group
  % decrease, bone score: -12%
  % decrease, depth ratio mean: 5%
  % decrease, depth ratio zone 2: 42%
  % decrease, femoral cartilage degeneration score: -27%
  % decrease, osteophyte measure: -12%
  % decrease, osteophyte score: -13%
  % decrease, significant degeneration width: 8%
  % decrease, tibial score 3-zone total: 5%
  % decrease, tibial score zone 1: 1%
  % decrease, tibial score zone 2: 13%
  % decrease, tibial score zone 3: 0%
  % decrease, total degeneration width: 3%
  % decrease, total joint score: -5%
  % decrease, total joint score w/o femur: -2%
[11]; day 14
  Weight bearing, hours after dosing with significant difference: 1 h
[11]; day 21, BL baseline
  Weight bearing, hours after dosing with significant difference: BL, 1, 3
[12]; day 7
  Weight bearing, hours with significant effect: 1 h
[12]; day 21
  Weight bearing, hours with significant effect: 3,5 h

## COc1ccc(/C=C/c2ccccc2F)cc1 [NF-κB activation inhibitor IV, (E)-2-fluoro-4′-methoxystilbene]
[1]
  fold more potent than resveratrol at inhibiting NF-κB: Experimentally used as an anti-inflammatory but not an antioxidant 130-fold more potent than resveratrol at inhibiting NF-κB [94]
